From publication PMC9701171 (Journal of pharmaceutical and biomedical analysis, 2022)
Where two headings read alike, the source gives them in different places.

Assays:
HbA [1] = biological target: T1, HbA (Homo sapiens, UniProt P69905); assay: Time-dependent HbA binding kinetics; details: for time to equilibration with HbA: low [AEH]0, assuming first-order conditions; for time to achieve steady state (SS): 0.2 mM HbA, pilot observations
HbA [2] = biological target: T1, HbA; assay: Steady-state concentration-dependent HbA binding; details: for n (Hill coefficient): SS concentration-dependency; for fold enhancement of binding affinity (improvement of KD) relative to 5-HMF: compared to 5-HMF
HbA [3] = biological target: T1, HbA; details: cited from earlier work
HbS = details: cited from earlier work
[4] = Reference Method, sigmoidal Bmax model, PE (COV)

T1 sequence (P69905 2-142 limits assumed): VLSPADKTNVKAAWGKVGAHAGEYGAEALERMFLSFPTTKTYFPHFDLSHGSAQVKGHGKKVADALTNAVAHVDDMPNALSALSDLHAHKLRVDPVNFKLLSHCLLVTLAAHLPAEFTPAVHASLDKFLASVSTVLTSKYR
T1 sequence (P68871 2-147 partner limits assumed): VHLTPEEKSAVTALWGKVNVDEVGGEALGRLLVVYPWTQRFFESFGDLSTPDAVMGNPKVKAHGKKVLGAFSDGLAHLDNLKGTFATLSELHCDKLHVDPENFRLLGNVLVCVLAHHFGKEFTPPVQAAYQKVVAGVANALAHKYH

Kd (HbA [1]) [mM]	Kd (HbA [2]) [µM]	Compound	n (Hill coefficient) (HbA [2]; sigmoidal Bmax model, PE (COV))	fold enhancement of binding affinity (improvement of KD) relative to 5-HMF (HbA [2])	time to equilibration with HbA (HbA [1])	time to achieve steady state (SS) (HbA [1]) [s]	HbS-AEH adduct (Hb modification) (HbS) [%]	other results
0.12	190	O=Cc1ccc(C=O)o1 [2,5-DMF, 2,5-Furandicarboxaldehyde]	1.7(21%)	2 fold	–	–	–	koff (HbA [1]; read-out: koff (first-order dissociation rate constant)): 1.81e-05 s⁻¹
–	–	O=Cc1ccc(CO)o1 [5-HMF, 5-Hydroxymethyl-2-furfural]	1.1 (10%)	–	12 to 20 h	–	–	time to approach equilibrium (HbA [3]; 5-HMF in the presence of HbA): 24 to 30 h; Bmax (HbA [3]; [4]): 0.092 (10%); Bmax / HbA0 (HbA [3]; [4]): 0.74 (10%); Kd (HbA [3]; [4]): 280 µM; Kd (HbA [3]; read-out: binding affinity, 5-HMF in the presence of HbA): 250 µM; Bmax (HbA [2]; Universal Method, sigmoidal Bmax model, PE (COV)): 0.20 (6%)
–	110	CC(C)n1nccc1-c1ncccc1COc1cccc(O)c1C=O [GBT-440]	1.6 (16%)	–	–	≤ 120	–	HbA modified to the HbA-AEH adduct at saturation (HbA [2]; steady state, HbA solution): about 50%
–	–	COc1ccc(OCc2ccccn2)c(C=O)c1 [INN-310]	2.4 (20%)	–	–	–	100	–
–	–	O=Cc1c(O)cccc1OCc1cccc(CO)n1 [VZHE-039]	1.9 (34%)	less than 5 fold	less than half an hour	< 360	100	fold shorter t1/2^eq relative to 5-HMF (HbA [1]; current experimental conditions): more than 50 fold
4.3	1700	COc1cc(C=O)ccc1O [Vanillin, 4-Hydroxy-5-methoxybenzaldehyde]	–	–	–	–	–	HbA modification (HbA [2]; 5.8 mM, initial pilot study): < 100%
